According to ChEMBL document CHEMBL1150978, “Design and synthesis of cosalane, a novel anti-HIV agent” (Bioorg Med Chem Lett, 1993):
pEC50, pIC50: −log10 of the molar value.

What was measured:
[1] = Tested for the inhibitory activity of production of viral antigen (p30) against Sc-1 cells of rauscher murine leukemia virus (R-Mul V); format: functional, cell-based; conditions: Mus musculus
[2] = Tested for the therapeutic index of production of viral antigen (p30) against Sc-1 cells of rauscher murine leukemia virus (R-Mul V); format: functional, Mus musculus
[3] = system: MT2; assay: Tested for the antiviral activity against MT-2 cells infected with AZT resistant strain of HIV-1 (A012); format: functional, cell-based; conditions: Homo sapiens
[4] = system: MT2; assay: Tested for the therapeutic index against MT-2 cells of AZT sensitive strain of HIV-1 (A012); format: functional, Homo sapiens
[5] = Tested for the antiviral activity of production of viral antigen (p30) against Sc-1 cells of rauscher murine leukemia virus (R-Mul V); format: functional, cell-based; conditions: Mus musculus
[6] = system: MT2; assay: Tested for the therapeutic index against MT-2 cells of AZT resistant strain of HIV-1 (A012); format: functional, Homo sapiens
[7] = Tested for the therapeutic index against Sc-1 cells of rauscher murine leukemia virus (R-Mul V) by plaque assay in mouse; format: functional
[8] = Tested for the inhibitory activity against Sc-1 cells by plaque assay in mouse; format: functional, cell-based
[9] = system: CEM-SS; assay: Tested for the therapeutic index against CEM-SS cells of HIV-1 (IIIb); format: functional, Homo sapiens
[10] = system: CEM-SS; assay: Tested for the inhibitory activity against CEM-SS cells; format: functional, cell-based; conditions: Homo sapiens
[11] = system: MT4; assay: Tested for the inhibitory activity against MT-4 cells; format: functional, cell-based; conditions: Homo sapiens
[12] = system: MT2; assay: Tested for the inhibitory activity against MT-2 cells; format: functional, cell-based; conditions: Homo sapiens
[13] = system: CEM-SS; assay: Tested for the therapeutic index against CEM-SS cells of HIV-2 (NIH-D2); format: functional, Homo sapiens
[14] = system: MT4; assay: Tested for the antiviral activity against MT-4 cells infected with HIV (IIIb) strain resistant to non-nucleoside reverse transcriptase inhibitors; format: functional, cell-based; conditions: Homo sapiens
[15] = Tested for the antiviral activity against Sc-1 cells infected with rauscher murine leukemia virus (R-Mul V) by plaque assay in mouse; format: functional, cell-based
[16] = system: CEM-SS; assay: Tested for the therapeutic index against CEM-SS cells of HIV-1 (RF); format: functional, Homo sapiens
[17] = system: MT4; assay: Tested for the therapeutic index against MT-4 cells of HIV-1 (IIIb); format: functional, Homo sapiens
[18] = system: MT2; assay: Tested for the antiviral activity against MT-2 cells infected with AZT sensitive strain of HIV-1 (A012); format: functional, cell-based; conditions: Homo sapiens
[19] = system: CEM-SS; assay: Tested for the antiviral activity against CEM-SS cells infected with HIV-1 (RF); value ranges from 2-15.; format: functional, cell-based; conditions: Homo sapiens
[20] = system: CEM-SS; assay: Tested for the antiviral activity against CEM-SS cells infected with HIV-2 (NIH-D2); format: functional, cell-based; conditions: Homo sapiens

## CC(C)CCCC(C)[C@H]1CC[C@H]2[C@@H]3CCC4C[C@@H](CCC=C(c5cc(Cl)c(O)c(C(=O)O)c5)c5cc(Cl)c(O)c(C(=O)O)c5)CC[C@]4(C)[C@H]3CC[C@]12C (stereo not given in full)
[1]
  pIC50: < 4.49
[2]
  TI50: >4
[3]
  pEC50: 5.00
[4]
  TI50: 25
[5]
  pEC50: 5.15
[6]
  TI50: 20
[7]
  TI50: >8
[8]
  pIC50: < 4.49
[9]
  TI50: >100
[10]
  pIC50: < 3.52
[11]
  pIC50: < 3.52
[12]
  pIC50: 3.70
[13]
  TI50: >60
[14]
  pEC50: 4.70
[15]
  pEC50: 5.40
[16]
  TI50: >20
[17]
  TI50: >15
[18]
  pEC50: 5.10
[19]
  pEC50: 5.70
[20]
  pEC50: 5.30
